Like-named read-outs stand apart in the source and are kept apart here.
Columns and labels:
[1] = tested on: PRMT5 (symmetric dimethylation of arginine (SDMA) in MCF-7 cells); test: PRMT5 Cell Target Engagement (TE) Assay (SDMA, high content imaging); type: cell-based; conditions: Homo sapiens, MCF7, 72 h, treated for 3 days, top compound concentration of 10000 nM
From the text: PRMT5 Cell Target Engagement (TE) Assay
The PRMT5 TE assay is a biomarker assay for identifying compounds that inhibit symmetric dimethylation of arginine (SDMA) of PRMT5 substrates. This assay detects symmetrically dimethylated nuclear proteins using high content imaging technology. Detection of the expression of symmetrically dimethylated nucleo proteins is through a mixture of primary rabbit monoclonal antibodies to SDMA (CST 13222), which in turn recognized by an Alexafluor 488 dye-conjugated anti-rabbit IgG secondary antibody. The IN Cell Analyzer 2200 measures nuclear Alexafluor 488 fluorescent dye intensity that is directly related to the level of expression of symmetrically dimethylated nuclear proteins at the single cell level. Nuclear AF488 dye intensities are compared to the mean value for DMSO treated cells […] to report percent of inhibition for each compound-treated well.
In this assay, the cell potency (EC50) of each compound was determined from a ten point (1:3 serial dilution; top compound concentration of 10000 nM) titration curve using the following outlined procedure. Each well of a BD falcon collagen coated black/clear bottom 384-well plate was seeded with 4000 MCF-7 cells and allowed to attach for 5 hours. Media from cell plate was removed at 0.5 mm above the bottom of the plate and replaced with 30 μL of fresh media containing 1.2× compounds in 0.1% DMSO. Cells were treated for 3 days in 37° C. CO2 incubator. On day 3, cells were fixed with Cytofix, permeabilized with 0.4% Triton-X-100/Cytofix, and washed with D-PBS without Ca/Mg. Cells were blocked with Licor Odessey blocking reagent for one hour at room temperature, followed by incubation with anti-SDMA (1:1000) antibody at 4° C. overnight. 1° antibody was removed, followed by three washings with DPBS without Ca/Mg and 0.05% Tween20. Hoechst (5 μg/ml), Cell Mask deep stain (1:2000) and Alexa488-conjugated goat anti-rabbit IgG (2 μg/mL) was added for 1 hour at room temperature. A final washing step (three washes) was performed before sealing plate for imaging on In Cell Analyzer 2200. Images from analyzer were uploaded to Columbus (at WP) for image analysis. IC50 values were determined by 4 parameters robust fit of percent fluorescence units vs. (Log10) compound concentrations.

[2] = molecular target: Full-length PRMT5 enzyme co-expressed with His6-MEP50 (Homo sapiens (Human), UniProt O14744); test: PRMT5 Biochemical Assay (Transcreener EPIGEN methyltransferase, fluorescence polarisation); conditions: histone H4 derived peptide substrate 1 μM, 1 μM S-Adenosyl methionine, 4 hours at 37 degree Celsius
Chain of Full-length PRMT5 enzyme co-expressed with His6-MEP50 (O14744 whole entry): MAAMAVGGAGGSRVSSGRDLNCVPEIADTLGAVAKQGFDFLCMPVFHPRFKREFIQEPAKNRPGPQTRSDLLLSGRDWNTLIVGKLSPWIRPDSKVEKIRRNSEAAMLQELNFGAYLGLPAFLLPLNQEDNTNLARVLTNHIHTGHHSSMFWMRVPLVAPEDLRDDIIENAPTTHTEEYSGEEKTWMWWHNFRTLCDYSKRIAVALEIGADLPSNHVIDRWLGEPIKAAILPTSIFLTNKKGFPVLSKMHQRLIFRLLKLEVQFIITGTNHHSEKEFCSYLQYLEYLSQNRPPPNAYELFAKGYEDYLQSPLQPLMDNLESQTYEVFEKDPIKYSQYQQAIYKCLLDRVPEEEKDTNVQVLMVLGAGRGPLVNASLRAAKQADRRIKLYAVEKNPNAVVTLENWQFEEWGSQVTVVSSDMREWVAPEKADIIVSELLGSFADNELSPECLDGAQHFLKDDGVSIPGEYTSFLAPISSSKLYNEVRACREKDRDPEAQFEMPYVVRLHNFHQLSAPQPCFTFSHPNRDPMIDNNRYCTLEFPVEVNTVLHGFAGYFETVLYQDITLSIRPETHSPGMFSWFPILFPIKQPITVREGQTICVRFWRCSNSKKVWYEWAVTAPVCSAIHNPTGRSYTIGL
Chain of Full-length PRMT5 enzyme co-expressed with His6-MEP50 (Q9BQA1 whole entry partner): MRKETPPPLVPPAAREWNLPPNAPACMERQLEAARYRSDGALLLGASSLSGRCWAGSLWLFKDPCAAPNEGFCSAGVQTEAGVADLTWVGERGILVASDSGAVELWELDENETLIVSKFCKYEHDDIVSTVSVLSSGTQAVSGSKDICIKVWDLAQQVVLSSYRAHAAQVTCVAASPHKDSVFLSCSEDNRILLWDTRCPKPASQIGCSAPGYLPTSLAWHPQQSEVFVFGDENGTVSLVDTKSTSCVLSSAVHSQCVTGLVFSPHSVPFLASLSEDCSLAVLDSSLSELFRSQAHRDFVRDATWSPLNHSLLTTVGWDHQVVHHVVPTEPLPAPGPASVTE
Experimental: Compounds of the Invention may be Tested for In Vitro Activity in the Following Assay:
A histone H4 derived peptide is used as substrate (amino acid sequence: […]NH2). Full-length PRMT5 enzyme (NCBI Reference sequence NP_006100.2) was co-expressed with His6-MEP50 in insect cells and purified via Nickel immobilized metal affinity and gel filtration chromatography (“the enzyme”).
The 6 μL reactions are run in Greiner brand black 384-well low volume assay plates. All reactions contained assay buffer (phosphate buffered saline, 0.01% (v/v) Tween-20, 0.01% (w/v) albumin from chicken egg white, 1 mM Dithiothreitol, 1 μM peptide substrate, 1 μM S-Adenosyl methionine, and 15 ng/reaction enzyme, with the enzyme being omitted from negative control reactions. Compounds were added in a volume of 100 nL from dilution series prepared in DMSO, positive and negative control reactions receiving the same volume DMSO without compound. The plates were sealed with adhesive seals and incubated for 4 hours at 37 degree Celsius. Reaction progress was measured using the Transcreener™ EPIGEN methyltransferase assay (BellBrook Labs, Madison, Wis.) as recommended by the manufacturer. To each reaction 2 μL detection mix were added, containing coupling enzymes, fluorescence polarisation tracer, and AMP antibody. Plates were incubated for 90 minutes before being read on a Perkin Elmer EnVision™ plate reader in fluorescence polarisation mode. IC50 values were obtained from the raw readings by calculating percent inhibition (% I) for each reaction relative to controls on the same plate (% I=(I−CN)/(CP−CN) where CN/CP are the averages of the negative/positive reactions, respectively), then fitting the % I data vs. compound concentration [I] to % I=(A+((B−A)/(1+((C/[I])^D)))) where A is the lower asymptote, B is the upper asymptote, C is the IC50 value, and D is the slope.

[3] = tested on: PRMT5 (symmetrical dimethylation of arginine in TE11 cells); test: PRMT5 Biomarker Assay (symmetrical dimethylation of arginine, Di-Methyl Histone H4 Arginine 3); type: cell-based; conditions: Homo sapiens, TE-11, 72 hours incubation, anti-Di-Methyl Histone H4 Arginine 3 antibody
Experimental: Compounds of the Invention may be Tested for Potency to Inhibit Symmetrical Dimethylation of Arginine in the Following Assay:
The cell line TE11 was seeded at a density of 6,000 cells per well in 96 well optical quality tissue culture plates in DME medium and 10% foetal bovine serum, and allowed to adhere for 5 hours under standard culture conditions (37 degree Celsius, 5% CO2). Compound dilutions prepared in DMSO were added to the medium, with negative control wells reserved for treatment with DMSO only and maximum inhibition controls receiving a potent PRMT5 inhibitor compound at 1 μM concentration. After incubation for 72 hours, the cells were fixed with 3.7% formaldehyde in PBS for 30 minutes at room temperature, washed with phosphate buffer saline and blocked with Odyssey blocking buffer (LI-COR, Lincoln, Nebr.). Rabbit anti-Di-Methyl Histone H4 Arginine 3 specific antibody (Epigentek) in Odyssey blocking buffer was added and incubated for 14 hours at 4 degree Celsius. After washing, anti-rabbit secondary antibody labelled with Alexa647 dye (LifeTechnologies) and Hoechst 33342 (1 μg/mL, SigmaAldrich) were added for 1 hour incubation. Plates were washed and read on a PerkinElmer Envision 2103 in fluorescence intensity scanning mode (24 scans across the well area). The plates were imaged on a PerkinElmer Phenix high content imaging platform. Using a Columbus image analysis pipeline, individual nuclei were located by Hoechst 33342 stain and the methylation level was calculated from the Alexa647-related intensity in the same area. IC50 values were obtained from the mean Alexa647-related intensity per cell by calculating percent inhibition (% I) for each well relative to controls on the same plate (% I=(I−CN)/(CP−CN) where CN/CP are the averages of the negative/maximum inhibition controls, respectively), then fitting the % I data vs. compound concentration [I] to % I=(A+((B−A)/(1+((C/[I])^D)))) where A is the lower asymptote, B is the upper asymptote, C is the IC50 value, and D is the slope.

[4] = molecular target: Full-length (FL)-PRMT5-MEP50 enzyme complex (Homo sapiens (Human), UniProt O14744); test: PRMT5-MEP50 Enzyme Methylation Assay (SAMDI); type: biochemical; conditions: 0.5 nM PRMT5-MEP50, 75 nM biotinylated H4R3(Me1) peptide, 15 μM SAM, 150 minutes at 37° C.
Chain of Full-length (FL)-PRMT5-MEP50 enzyme complex (O14744 whole entry): as the sequence (O14744 whole entry) above
Chain of Full-length (FL)-PRMT5-MEP50 enzyme complex (Q9BQA1 whole entry partner): as the sequence (Q9BQA1 whole entry partner) above
Experimental: PRMT5-MEP50 Enzyme Methylation Assay
PRMT5/MEP50 biochemical assay is a direct measurement of the methylation activity of the enzyme complex on a short peptide substrate derived from the N-terminus of H4 histone. Methylation experiment is performed with recombinant protein. The assessment of inhibitory effect (IC50) of small molecules is measured by the effectiveness of the compounds to inhibit this reaction.
In this assay, the potency (IC50) of each compound was determined from a twenty-point (1:2 serial dilution; top compound concentration of 100000 nM) titration curve using the following outlined procedure. To each well of a white ProxiPlus 384 well-plate, 100 nL of compound (1% DMSO in final assay volume of 10 μL) was dispensed, followed by the addition of 8 μL of 1× assay buffer (50 mM Bicine pH 8.0, 1 mM DTT, 0.004% Tween20, 0.01% BSA) containing 0.5 nM of Full-length (FL)-PRMT5-MEP50 enzyme complex (recombinant proteins from baculovirus-transfected Sf21 cells: FL-PRMT5; MW=[…] and FL-MEP50; MW=38614). Plates were sealed and placed in a 37° C. humidified chamber for 30 minutes pre-incubation with compounds. Subsequently, each reaction was initiated by the addition of 2 μL 1× assay buffer containing 75 nM biotinylated H4R3(Me1) peptide, and 15 μM S-(5′-Adenosyl)-L-Methionine Chloride (SAM). The final reaction in each well of 10 μL consists of 0.5 nM PRMT5-MEP50,75 nM biotinylated-peptide, and 15 μM SAM. Methylation reactions were allowed to proceed for 150 minutes in a sealed plate at 37° C. Reactions were immediately quenched by the addition of 1 μL of 10% formic acid. Plates were then frozen and shipped to SAMDI™ Tech Inc. to determine the percent conversion from […]. IC50 values were determined by 7 parameters biphasic fit model plotting the percent product conversion vs. (Log10) compound concentrations.

[5] = Enzyme Methylation Assay (EC50—1, nM), first EC50 of biphasic fit

SMILES	EC50 [1] [nM]	IC50 [2] [nM]	IC50 [3] [nM]	EC50 [4, 5] [nM]	EC50 ([4]; Enzyme Methylation Assay (EC50—2, nM), second EC50 of biphasic fit) [nM]	EC50 ([4]; second EC50 of biphasic fit, read-out: Enzyme Methylation Assay (EC50—2)) [nM]
CCOc1cc(C(=O)N2C3CCC2COC3)ccc1C(=O)NC[C@@H](O)[C@@H]1Cc2ccc(OC)cc2CN1 [Example 1, 4-(3-Oxa-8-azabicyclo[3.2.1]octane-8-carbonyl)-2-ethoxy-N—((R)-2-hydroxy-2-((S)-7-methoxy-1,2,3,4-tetrahydroisoquinolin-3-yl)ethyl)benzamide]	19	15	0.19	0.27	5	
COc1ccc2c(c1)CN[C@H]([C@H](O)CNC(=O)c1ccc(C(=O)N3C4CCC3COC4)cc1)C2 [Example 2, 4-(3-Oxa-8-azabicyclo[3.2.1]octane-8-carbonyl)-N—((R)-2-hydroxy-2-((S)-7-methoxy-1,2,3,4-tetrahydroisoquinolin-3-yl)ethyl)benzamide]	17	18	0.4	0.62		126

— US10421743B2, “Tetrahydroisoquinolines as PRMT5 inhibitors” (CTXT PTY LTD, priority 2016, dated 2019)
